Data set [1] concerns non-small cell lung cancer. The data set can be described thus: Phase I study of ganetespib with cisplatin/pemetrexed, carboplatin/pemetrexed or carboplatin/paclitaxel. As to conditions: combination with cisplatin/pemetrexed. It counts as in vivo, patients. The source says: This is a Phase 1, open-label, dose-escalation study in patients with advanced NSCLC with adenocarcinoma histology.
Cohort 1: patients treated with ganetespib, cisplatin and pemetrexed
Cohort 2: patients treated with ganetespib, carboplatin and pemetrexed
Cohort 3: patients treated with ganetespib, carboplatin and paclitaxel
In Cohort 1, one treatment cycle consists of treatment with ganetespib, cisplatin and pemetrexed on Day 1, and ganetespib on Day 15
In Cohort 2, one treatment cycle consists of treatment with ganetespib, carboplatin and pemetrexed on Day 1, and ganetespib on Day 15
In Cohort 3, one treatment cycle consists of treatment with ganetespib, carboplatin and paclitaxel on Day 1, and ganetespib on Day 15
Treatment cycles are repeated every 3 weeks. The total planned number of combination cycles is 4. Ganetespib is administered on Days 1 and 15 of each cycle; cisplatin and pemetrexed, carboplatin and pemetrexed, or carboplatin and paclitaxel are administered on Day 1 of each cycle. Each agent is administered as a separate infusion (see Dose-Escalation Table below). […]
Duration of treatment: the duration of the combination treatment for each regimen is 4 treatment cycles, if tolerated. Patients who complete 4 combination-treatment cycles are evaluated for tumor disease response, general performance status and toxicities. […]

Data set [2] relates to triple-negative breast cancer. The data set can be described thus: Phase 3 study of ganetespib in combination with docetaxel. It counts as in vivo, patients. The note with it: ganetespib 150 mg/m^2 in combination with docetaxel 75 mg/m^2. The source says: This is an open-label, multicenter, randomized Phase 3 study of patients with triple-negative breast cancer (TNBC). Eligible patients are previously untreated for their advanced or metastatic disease and have measurable disease as defined by Response Evaluation Criteria in Solid Tumors (RECIST). Patients are randomized in a 1:1 ratio to receive either ganetespib in combination with docetaxel or docetaxel alone. The study compares the efficacy and tolerability of ganetespib in combination with docetaxel versus docetaxel alone.
The study enrolls approximately 300 patients over a planned 30-month period, and patients are randomized into one of two treatment arms:
Arm A (combination arm): Ganetespib 150 mg/m^2 in combination with docetaxel 75 mg/m^2. On Day 1 of each 3-week treatment cycle, ganetespib and docetaxel are administered as separate 1-hour intravenous infusions. Administration of ganetespib precedes the administration of docetaxel. There is a 1-hour “rest” period following the end of the ganetespib infusion prior to docetaxel infusion. Ganetespib 150 mg/m^2 is administered again on Day 15 of each cycle […]
Clinical and laboratory parameters are assessed to evaluate disease status and toxicity in all patients. […] The post-dose ECG is recorded within approximately 60 minutes after the end of the ganetespib infusion or as soon as feasible. […]

The test system of data set [3] is cancers with genetic profiles driven by strong Hsp90 clients. The data set can be described thus: Earlier clinical results for ganetespib, monotherapy and with taxanes. It counts as in vivo. An excerpt: The clinical study aims to achieve this goal by using ganetespib to target what may be a central driver of ovarian cancer aggressiveness and metastatic ability, namely mutant p53.

[4] abbreviates: combination of ganetespib and taxanes.

SMILES strings stand for the structures.

With `CC(C)c1cc(-c2n[nH]c(=O)n2-c2ccc3c(ccn3C)c2)c(O)cc1O` [ganetespib], the efficacy entry in data set [1] and in data set [2] was “efficacious” throughout. Moreover, the values for the safety profile entry in data set [1], in data set [2] and in data set [3] (setting [4]) were “good safety profile”, “good safety profile” and “favorable”, respectively. Further, the activity result in data set [3] (setting [4]) is on record as “favorable”. For the same compound, the tumor responses result in data set [3] (ganetespib monotherapy, cancers with genetic profiles driven by strong Hsp90 clients) is listed as “durable objective tumor responses”.

These data come from patent publication US20160120848A1, “SPECIFIC CANCER TREATMENT REGIMES WITH GANETESPIB” (SYNTA PHARMACEUTICALS CORP., priority 2013, published 2016).
